Experiments:
PI-3 kinase γ [1] = biological target: T1, PI-3 kinase γ (Homo sapiens, UniProt P48736); test: PI3Kγ inhibitory activity, PI3-kinase HTRF assay (inhibition ratio); format: biochemical; details: 0.5 h, compound at 50 μmol/L
Procedure, shortened: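 Human PI3Kγ was preincubated 10 min with compound and PIP2 substrate, then reacted 30 min at room temperature with ATP (40 μmol/L in the added solution); EDTA/biotin-PIP3 quenched. HTRF 665/620 nm ratio read after 18 h, normalized to no-compound (100%) and no-enzyme (0%) controls, gave % inhibition at 50 or 10 μmol/L compound.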

PI-3 kinase γ [2] = biological target: T1, PI-3 kinase γ; test: PI3Kγ inhibitory activity (Ki value); format: biochemical; details: test ATP concentration 10 μmol/L
Description: The PI3Kγ inhibitory activity (Ki value) of a compound was evaluated according to the following procedure:
5 μL of a compound solution containing 10% DMSO and 200 μmol/L of a compound was changed to 5 μL of a compound solution containing 10% DMSO and either 200, 64, 20, 6.4, 2, 0.64, or 0.20 μmol/L of the compound (optionally, this is diluted to a lower concentration). Using a method similar to the method for measuring PI3Kγ inhibitory activity, inhibition ratios were measured in the presence of the compound at 50, 16, 5, 1.6, 0.5, 0.16, and 0.05 μmol/L (optionally, a lower concentration). Then an IC50 value was calculated by a logistic approximation method or the linear regression method using two concentrations that across 50% inhibition. Separately, the ATP concentration in the reaction solution (40 μmol/L ATP, 10 mmol/L MgCl2, 5 mmol/L DTT) at the time of the start of a reaction in the absence of the compound was changed to 80, 40, 20, 10, 5, 2.5, 1.25, or 0.625 μmol/L. Then, HTRF ratios were measured by a similar method. The value obtained by subtracting the HTRF ratio at each ATP concentration from the HTRF ratio in the absence of PI-3 kinase γ was defined as the value obtained by multiplying reaction rate (v) at each ATP concentration with a constant. The Michaelis-Menten constant Km was then calculated by the Lineweaver-Burk plot method. The Ki value of a compound was calculated by the following formula.
Ki=IC50 value/(1+10 μmol/L (test ATP concentration)/Km(μmol/L))

[3] = Metabolic stability test, pooled human liver microsome; format: in vitro ADME; details: 2 μmol/L compound; human liver microsome 0.5 mg protein/mL, NADPH, 37° C.
Description: After a subject compound was reacted for a certain time using a commercially available pooled human liver microsome, a reacted sample and an unreacted sample are compared to calculate a survival ratio, and then the degree of metabolism in the liver was evaluated.
0.2 mL of a buffer solution (50 mmol/L of Tris-HCl in pH 7.4, 150 mmol/L of potassium chloride, and 10 mmol/L of magnesium chloride) containing a human liver microsome of 0.5 mg protein/mL was reacted in the presence of 1 mmol/L NADPH at 37° C. for 0 or 30 minutes (oxidative reaction). After reacting, 50 μL of the reaction solution was added to 100 μL of a solution of methanol/acetonitrile (1/1 (v/v)), mixed, and then centrifuged at 3000 rpm for 15 minutes. The test compound in the supernatant was quantitated with LC/MS/MS. The amount of the compound at a reaction time of 0 minute was defined as 100% and, based on that, the percentage of the test compound remained after reacting for 30 minutes was calculated.

CYP2C19 = biological target: T2, CYP2C19 (Homo sapiens, UniProt P33261); test: CYP inhibition test, 4′-hydroxylation of mephenyloin; format: in vitro ADME; details: pooled human liver microsome; one of 5 kinds
T2 construct: enzyme: pooled human liver microsome 0.2 mg protein/mL; from tissue; host or cells: pooled human liver microsomes
From the text: (§1) O-de-ethylation of 7-ethoxyresorufin (CYP1A2), methyl-hydroxylation of tolbutamide (CYP2C9), 4′-hydroxylation of mephenyloin (CYP2C19), O-demethylation of dextromethorphan (CYP2D6), and hydroxylation of terfenadine (CYP3A4), which are typical substrate for metabolic reactions of human main CYP5 molecular species (CYP1A2, 2C9, 2C19, 2D6, and 3A4), were adopted as indexes.
(§2) The reaction conditions are as follows: substrate: 0.5 μmol/L of ethoxyresorufin (CYP1A2), 100 μmol/L of tolbutamide (CYP2C9), 50 μmol/L of S-mephenyloin (CYP2C19), […] of dextromethorphan (CYP2D6), and 1 μmol/L of terfenadine (CYP3A4); reaction time; 15 minutes; reaction temperature: 37° C.; enzyme: pooled human liver microsome 0.2 mg protein/mL; test drug concentration: 1, 5, 10, and 20 μmol/L (4 points).
(§3) In a 96-well plate, as a reaction solution, five kinds of substrates, a human liver microsome, and a test drug were added to 50 mmol/L Hepes buffer solution in the aforementioned ratio. A coenzyme NADPH was added to start a metabolic reaction, which is an index. After reacting at 37° C. for 15 minutes, a solution of methanol/acetonitrile (1/1 (v/v)) was added to quench the reaction. After centrifugation at 3000 rpm for 15 minutes, resorufin (CYP1A2 metabolite) in the supernatant was quantitated with a fluorescence multilabel counter, and hydroxylated tolbutamide (CYP2C9 metabolite), 4′-hydroxylated mephenyloin (CYP2C19 metabolite), […], terfenadine in alcohol form (CYP3A4 metabolite) were quantitated with LC/MS/MS.
(§4) The case wherein only DMSO (a solvent which dissolved a drug) was added to a reaction system was defined as a control (100%). When a test drug solution was added, the remaining activity (%) at each concentration was calculated, and then IC50 was calculated with a concentration and an inhibition ratio by an inverse estimation using a logistic model.

CYP3A4 = biological target: T3, CYP3A4 (Homo sapiens, UniProt P08684); test: CYP inhibition test, hydroxylation of terfenadine; format: in vitro ADME; details: pooled human liver microsome; one of 5 kinds
T3 construct: enzyme: pooled human liver microsome 0.2 mg protein/mL; from tissue; host or cells: pooled human liver microsomes
From the text: as §1, §2, §3, §4

T1 sequence (P48736 whole entry): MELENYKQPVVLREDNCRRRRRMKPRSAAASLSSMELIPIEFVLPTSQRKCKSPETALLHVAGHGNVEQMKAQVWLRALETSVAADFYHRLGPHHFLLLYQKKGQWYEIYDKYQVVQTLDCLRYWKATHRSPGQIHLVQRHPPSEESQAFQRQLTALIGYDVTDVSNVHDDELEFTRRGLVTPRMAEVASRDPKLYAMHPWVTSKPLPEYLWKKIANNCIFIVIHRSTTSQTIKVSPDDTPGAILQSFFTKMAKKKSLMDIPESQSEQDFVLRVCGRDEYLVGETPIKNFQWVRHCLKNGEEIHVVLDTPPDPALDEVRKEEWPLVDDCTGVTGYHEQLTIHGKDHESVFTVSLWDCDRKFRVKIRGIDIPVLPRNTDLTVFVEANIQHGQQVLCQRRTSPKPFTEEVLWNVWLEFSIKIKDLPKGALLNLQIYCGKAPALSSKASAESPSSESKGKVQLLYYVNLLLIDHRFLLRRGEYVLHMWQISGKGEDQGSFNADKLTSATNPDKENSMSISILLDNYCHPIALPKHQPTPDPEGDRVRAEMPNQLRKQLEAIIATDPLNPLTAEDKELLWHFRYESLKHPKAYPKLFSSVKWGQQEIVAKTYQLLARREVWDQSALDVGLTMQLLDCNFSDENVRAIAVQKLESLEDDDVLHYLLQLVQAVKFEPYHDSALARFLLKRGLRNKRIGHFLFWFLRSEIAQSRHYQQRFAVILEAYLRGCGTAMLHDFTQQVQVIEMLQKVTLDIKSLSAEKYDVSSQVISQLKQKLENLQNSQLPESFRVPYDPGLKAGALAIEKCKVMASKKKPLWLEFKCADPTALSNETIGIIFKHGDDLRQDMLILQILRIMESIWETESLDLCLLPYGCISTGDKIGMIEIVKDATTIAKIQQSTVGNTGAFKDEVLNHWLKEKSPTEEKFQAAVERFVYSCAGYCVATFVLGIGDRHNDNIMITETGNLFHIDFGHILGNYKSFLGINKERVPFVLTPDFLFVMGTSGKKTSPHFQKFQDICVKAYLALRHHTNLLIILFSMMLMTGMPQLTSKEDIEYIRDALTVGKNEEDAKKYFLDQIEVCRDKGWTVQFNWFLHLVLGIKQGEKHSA
T2 sequence (P33261 whole entry): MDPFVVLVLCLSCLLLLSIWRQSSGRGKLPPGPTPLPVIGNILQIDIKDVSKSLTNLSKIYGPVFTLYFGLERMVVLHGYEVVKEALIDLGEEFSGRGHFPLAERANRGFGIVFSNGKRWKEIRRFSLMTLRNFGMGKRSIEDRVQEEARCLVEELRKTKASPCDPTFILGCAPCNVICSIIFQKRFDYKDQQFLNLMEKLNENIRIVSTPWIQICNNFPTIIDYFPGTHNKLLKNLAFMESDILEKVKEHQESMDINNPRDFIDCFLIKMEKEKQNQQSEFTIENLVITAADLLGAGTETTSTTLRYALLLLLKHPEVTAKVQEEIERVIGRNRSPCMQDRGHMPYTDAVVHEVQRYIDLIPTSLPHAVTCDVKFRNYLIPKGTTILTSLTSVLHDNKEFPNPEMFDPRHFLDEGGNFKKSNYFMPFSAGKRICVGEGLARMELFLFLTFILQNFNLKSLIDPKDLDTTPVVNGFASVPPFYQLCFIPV
T3 sequence (P08684 whole entry): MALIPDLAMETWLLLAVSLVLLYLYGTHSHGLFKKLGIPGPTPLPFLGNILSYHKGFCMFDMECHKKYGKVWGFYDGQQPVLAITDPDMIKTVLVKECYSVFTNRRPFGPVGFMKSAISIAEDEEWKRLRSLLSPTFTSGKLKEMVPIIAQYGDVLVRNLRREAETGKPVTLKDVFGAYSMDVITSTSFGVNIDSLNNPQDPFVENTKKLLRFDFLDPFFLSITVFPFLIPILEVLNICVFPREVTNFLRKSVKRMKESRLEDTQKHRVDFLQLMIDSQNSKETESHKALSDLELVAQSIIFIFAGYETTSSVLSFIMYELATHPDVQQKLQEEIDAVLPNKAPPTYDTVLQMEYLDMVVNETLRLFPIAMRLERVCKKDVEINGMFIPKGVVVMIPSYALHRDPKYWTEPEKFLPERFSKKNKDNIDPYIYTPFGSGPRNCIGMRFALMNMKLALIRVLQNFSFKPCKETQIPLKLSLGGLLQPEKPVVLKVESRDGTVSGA

Row | IC50 (CYP2C19) | IC50 (CYP3A4) | SMILES | inhibition at 50 µM (PI-3 kinase γ [1]) | Ki (PI-3 kinase γ [2]) | percentage of test compound remained after reacting for 30 minutes [3]
1 |  |  | O=C(O)c1ccccc1Nc1ccc2c(n1)N(C(=O)Nc1ccccc1)CCO2 [Compound I-145] | 81% | 0.044 µM | 88.4%
2 | > 20 µM | > 20 µM | O=C(O)COc1cccc(Nc2ccc3c(n2)N(C(=O)Nc2ccccc2)CCO3)c1 [Compound I-240] | ≥ 95% | 0.048 µM | 89.9%

Source: US20110172217A1, “RING-FUSED MORPHOLINE DERIVATIVE HAVING PI3K-INHIBITING ACTIVITY” (Shionogi & Co., Ltd., priority 2008, published 2011)
